From the supplement of paper PMC10307832

How the values were obtained:
Test in all cases: relative viability (nuclei count vs DMSO), 5 days (fraction); higher = more cells survive
Zebularine = compound: O=c1ncccn1[C@@H]1O[C@H](CO)[C@@H](O)[C@H]1O [Zebularine]
Outline: (§1)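 Lung cancer cell lines in 1536-well plates were kept overnight at 37 °C, then pinned with five library-drug doses (not always all listed) spaced by √10 on vehicle-anchored plates. After 5 days without medium change, cells were fixed, permeabilised and Hoechst-stained in one step, imaged at 4×, and nuclei were counted with MetaXpress. Viability is treated-well nuclei divided by vehicle-well nuclei, taken as the median over plates. Plates passed only with control CV below 25% and at least one doubling.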

BI-D1870 = compound: CC(C)CCN1c2nc(Nc3cc(F)c(O)c(F)c3)ncc2N(C)C(=O)C1C [BI-D1870]
Outline: as §1

Zebularine + Pemetrexed = compound: O=c1ncccn1[C@@H]1O[C@H](CO)[C@@H](O)[C@H]1O [Zebularine] + Nc1nc2[nH]cc(CCc3ccc(C(=O)N[C@@H](CCC(=O)O)C(=O)O)cc3)c2c(=O)[nH]1 [Pemetrexed] (partner 0.2 µM)
Outline: (§2)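 Lung cancer cell lines in 1536-well plates got either a single drug or a fixed anchor-drug dose together with five library-drug doses (not always all listed) in √10 steps, by pin tool, on the day after seeding. Nuclei were counted after 5 days, and relative viability is the treated-to-vehicle ratio of nuclei counts. Values are medians of duplicate plates.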

BI-D1870 + OSI-027 = compound: CC(C)CCN1c2nc(Nc3cc(F)c(O)c(F)c3)ncc2N(C)C(=O)C1C [BI-D1870] + COc1cccc2cc(-c3nc([C@H]4CC[C@H](C(=O)O)CC4)n4ncnc(N)c34)[nH]c12 [OSI-027] (partner 0.5 µM)
Outline: as §2

Row | Cell Line | relative viability (Zebularine; 1 µM) | relative viability (Zebularine; 3.162 µM) | relative viability (Zebularine; 10 µM) | relative viability (Zebularine; 31.62 µM) | relative viability (Zebularine; 100 µM) | relative viability (BI-D1870; 0.04 µM) | relative viability (BI-D1870; 0.1265 µM) | relative viability (BI-D1870; 0.4 µM) | relative viability (BI-D1870; 1.265 µM) | relative viability (BI-D1870; 4 µM) | relative viability (Zebularine + Pemetrexed; first compound 1 µM) | relative viability (Zebularine + Pemetrexed; first compound 3.162 µM) | relative viability (Zebularine + Pemetrexed; first compound 10 µM) | relative viability (Zebularine + Pemetrexed; first compound 31.62 µM) | relative viability (Zebularine + Pemetrexed; first compound 100 µM) | relative viability (BI-D1870 + OSI-027; first compound 0.04 µM) | relative viability (BI-D1870 + OSI-027; first compound 0.1265 µM) | relative viability (BI-D1870 + OSI-027; first compound 0.4 µM) | relative viability (BI-D1870 + OSI-027; first compound 1.265 µM) | relative viability (BI-D1870 + OSI-027; first compound 4 µM)
1 | HCC-44 | 1.05 | 1.02 | 0.701 | 0.843 | 0.44 | 1.04 | 0.876 | 0.989 | 1.07 | 1.03 | 0.723 | 0.625 | 0.646 | 0.679 | 0.445 | 0.751 | 0.5 | 0.642 | 0.464 | 0.383
2 | HCC-78 | 1.07 | 0.945 | 0.626 | 0.916 | 0.387 | 0.952 | 1 | 0.97 | 1.16 | 0.875 | 0.88 | 0.941 |  | 0.882 | 0.978 | 0.629 | 0.346 | 0.401 | 0.427 | 0.309
3 | HCC-366 | 1.03 | 0.995 | 0.928 | 0.856 | 0.297 | 1.02 | 0.928 | 0.995 | 1.04 | 0.951 | 0.168 | 0.179 | 0.136 | 0.192 | 0.0894 | 1.1 | 0.603 | 0.75 | 0.818 | 0.49
4 | HCC-827 | 1.08 | 1.03 | 0.851 | 0.877 | 0.47 | 1.05 | 1.05 | 1.04 | 1.03 | 1.01 | 0.328 | 0.254 | 0.229 | 0.243 | 0.235 | 0.74 | 0.738 | 0.71 | 0.76 | 0.711
5 | HOP-62 | 1.11 | 0.911 | 0.564 | 0.287 | 0.213 | 1.18 | 1.01 | 0.965 | 1.03 | 0.949 | 0.326 | 0.316 | 0.239 | 0.186 | 0.139 | 0.993 | 0.819 | 0.791 | 0.849 | 0.699
6 | IA-LM | 1.12 | 0.809 |  | 1.14 | 0.863 | 1.13 | 0.863 | 0.913 | 1.05 | 0.646 |  |  |  |  |  |  |  |  |  | 
7 | LC-2-ad | 1.02 | 0.937 | 0.653 | 0.719 | 0.355 | 1.08 | 0.957 | 1.02 | 1.01 | 0.868 | 0.276 | 0.289 | 0.27 | 0.255 | 0.259 | 0.93 | 0.861 | 0.824 | 0.867 | 0.802
8 | LCLC-97TM1 | 1.03 | 0.913 | 0.652 | 0.335 | 0.143 | 1.3 | 0.978 | 0.756 | 1.1 | 0.841 | 0.167 | 0.172 | 0.13 | 0.146 | 0.0657 | 0.682 | 0.61 | 0.557 | 0.727 | 0.472
9 | LCLC-103H | 0.959 | 0.987 | 0.867 | 1.04 | 0.842 | 1.03 | 0.967 | 0.94 | 1.06 | 0.838 | 0.459 | 0.443 | 0.388 | 0.504 | 0.443 | 0.387 | 0.417 | 0.447 | 0.418 | 0.366
10 | LK-2 | 1 | 1.03 | 0.556 | 0.544 | 0.392 | 1.14 | 1 | 1.28 | 1.21 | 0.973 | 0.321 | 0.298 | 0.173 | 0.253 | 0.131 | 0.21 | 0.259 | 0.198 | 0.197 | 0.148
11 | LOU-NH91 | 0.976 | 1.01 | 0.875 | 0.979 | 0.725 | 1.05 | 0.945 | 0.895 | 1.04 | 0.729 | 0.368 | 0.415 | 0.419 | 0.355 | 0.398 | 0.797 | 0.701 | 0.7 | 0.75 | 0.57
12 | LU99A | 1.06 | 0.997 | 0.883 | 0.689 | 0.246 | 1.01 | 0.822 | 0.98 | 0.827 | 0.77 | 0.182 | 0.236 | 0.162 | 0.134 | 0.146 | 0.295 | 0.265 | 0.288 | 0.308 | 0.287
13 | LXF-289 | 1.06 | 0.889 | 0.931 | 0.831 | 0.346 | 1.01 | 0.946 | 0.973 | 1.02 | 0.846 | 0.919 | 0.879 | 0.895 | 0.702 | 0.403 | 0.796 | 0.74 | 0.746 | 0.807 | 0.776
14 | NCI-H23 | 1.1 | 0.91 | 0.632 | 0.983 | 0.881 | 1.21 | 0.874 | 0.868 | 0.939 | 0.575 | 0.777 | 0.706 |  | 0.649 | 0.494 | 0.782 | 0.525 | 0.463 | 0.547 | 0.344
15 | NCI-H727 | 0.906 | 0.811 | 0.726 | 0.976 | 0.92 | 1.1 | 0.888 | 0.934 | 0.79 | 0.91 |  |  |  |  |  | 0.559 | 0.518 | 0.646 | 1.01 | 0.517
16 | NCI-H1299 | 1.02 | 0.97 | 0.858 | 1.06 | 0.454 | 1.05 | 1.01 | 1.04 | 1.04 | 0.863 |  |  |  |  |  |  |  |  |  | 
17 | NCI-H1623 | 0.923 | 0.895 | 0.86 | 0.894 | 0.531 | 0.945 | 0.895 | 1.19 | 1.16 | 0.911 |  |  |  |  |  | 0.389 | 0.439 | 0.457 | 0.396 | 0.376
18 | NCI-H1703 | 0.856 | 0.815 | 0.606 | 0.899 | 0.667 | 0.92 | 0.708 | 0.905 | 1.02 | 0.806 |  |  |  |  |  |  |  |  |  | 
